{"source": "patent US20030139616A1", "about": "“Method of searching for arteriosclerosis inhibitors and shrinkers” (priority 2000, published 2003)", "key": {"foam mouse macrophages": {"system": "foam mouse macrophages", "test": "Defoaming-promoting activity (cholesterol efflux into medium)", "assay_type": "cell-based", "settings": "for Amount of cholesterol transferred (control group = 100%) Mean: method of Example 4; for action on transfer of cholesterol: result in words, summary of Tables 3 and 7", "procedure": "The activity of the test compound on defoaming was measured by treating the foam mouse macrophages prepared in Example 1, with RPMI 1640-25 mM HEPES medium (pH 7) containing the test compound for 24 hours, followed by adding 20% fetal bovine serum (JRH Ltd.), and determining the radioactivity released into the medium after further culture for 24 hours. The defoaming-promoting activity of a group treated with the compound was calculated as a ratio (%) of the radioactivity corrected by a blank value to that of a control group. The blank value used was the radioactivity in the absence of the test compound and 20% fetal bovine serum. The defoaming-promoting activities of the control group and the group treated with the compound were corrected by the amount of cell protein measured by the BCA assay kit from Pierce Ltd. after the cells were solubilized with 0.1 N NaOH/0.1% SDS solution.\nThe promoting action of Compound A on defoaming was measured by using the method described in Example 4."}, "foamed macrophages": {"system": "foamed macrophages", "test": "Intracellular cholesteryl ester content by enzyme method", "assay_type": "cell-based, mouse", "settings": "for Content of intracellular cholesteryl esters (control group = 100%) Mean: method of Example 5 (enzyme method); for action on reduction of the cholesteryl ester content: result in words, summary of Tables 4 and 8", "procedure": "The mouse peritoneal macrophages prepared in Example 1 were cultured for 24 hours in an RPMI 1640-25 mM HEPES medium (pH 7) containing β-VLDL (150 μg/ml) and a conjugate of 0.2 mM oleic acid/0/2% bovine serum albumin to obtain foam cells in which cholesteryl esters were accumulated. These foamed macrophages were treated with an RPMI 1640-25 mM HEPES medium (pH 7) containing the test compound for 24 hours, and then the whole lipid was extracted. The lipid thus extracted was dissolved in isopropanol and measured for the amounts of the whole cholesterol and free cholesterol by the enzyme method (E-Test Wako, Wako Ltd.), and, from the difference therebetween, the amount of cholesteryl esters was calculated. The amounts of cell protein in a control group and a group treated with the compound were measured with a BCA assay kit from Pierce Ltd. after the cells were solubilized with 0.1 N NaOH/0.1% SDS solution, and assuming that the amount of cholesteryl esters (μg/mg cell protein) in the cells in the control group was 100%, the amount of cholesteryl esters (%) in the group treated with the compound was calculated.\nThe action of Compound A on reduction of the content of intracellular cholesteryl esters was measured by using the method described in Example 5."}, "[1]": {"system": "Mouse peritoneal macrophages", "test": "Inhibitory action on synthesis of intracellular cholesteryl esters", "assay_type": "cell-based", "settings": "for Content of intracellular cholesteryl esters (control group = 100%) TLC method Mean / Content of intracellular cholesteryl esters (control group = 100%) Methanol method Mean: 24 hours, 25-hydroxycholesterol", "procedure": "Mouse peritoneal macrophages prepared in the method described in Example 1 were cultured for 24 hours in an RPMI 1640-25 mM HEPES medium (pH 7) containing 1% fetal bovine serum and [1,2,6,7-^3H]-cholesterol (37 Kbq/ml, NEN Ltd.). The macrophages were labeled with ^3H-cholesterol and then cultured for 24 hours in an RPMI 1640-25 mM HEPES medium (pH 7) containing 2-[6-chloro-4-(2-methylphenyl)-2-oxo-2H-chromene-3-yl]-N-(2,6-dimethoxyphenyl) acetamide (referred to hereinafter as Compound A), 25-hydroxycholesterol (5 μg/ml, Sigma) and 0.2 mM oleic acid/0.2% bovine serum albumin, and the content of synthesized intracellular cholesteryl esters was quantified by the TLC fractionation method or the aqueous methanol extraction method (hereinafter also referred to as the methanol method). The measurement by the TLC fractionation method was conducted by extracting the whole intracellular lipid with a hexane-isopropanol mixture (3:2, v/v) and then fractionating the lipid in TLC under the same conditions as in Example 1 to quantify the intracellular cholesteryl esters. The measurement by the aqueous methanol extraction method was conducted by treating the cells with 80% methanol for 10 minutes, then solubilizing the cells with 0.1 N NaOH/0.1% SDS solution, and measuring their radioactivity. Each value of radioactivity was corrected by the amount of cell proteins measured with a BCA assay kit (Pierce Ltd.) after the cells were solubilized with 0.1 N NaOH/0.1% SDS solution, and assuming that the radioactivity (dpm/mg cell protein) of the control group in the absence of the test compound was 100%, the content of intracellular cholesteryl esters (%) in the group treated with Compound A was calculated."}, "[2]": {"system": "Foam cells derived from mouse peritoneal macrophages", "test": "Promoting action on decomposition of intracellular cholesteryl esters", "assay_type": "cell-based", "settings": "for Content of intracellular cholesteryl esters (control group = 100%) TLC method Mean / Content of intracellular cholesteryl esters (control group = 100%) Methanol method Mean: 48 hours", "procedure": "Foam cells derived from mouse peritoneal macrophages, prepared in the method described in Example 1, were cultured for 48 hours in an RPMI 1640-25 mM HEPES medium (pH 7) containing Compound A, and a reduction in the intracellular cholesteryl ester content was quantified by a TLC fractionation method or an aqueous methanol extraction method. The measurement by the TLC fractionation method was conducted by extracting the whole intracellular lipid with a hexane-isopropanol mixture (3:2, v/v) and then fractionating the lipid by TLC under the same conditions as in Example 1 to quantify the intracellular cholesteryl esters. The measurement by the aqueous methanol extraction method was conducted by treating the cells with 80% methanol for 10 minutes, then solubilizing the cells with 0.1 N NaOH/0.1% SDS solution, and measuring their radioactivity. Each value of radioactivity was corrected by the amount of cell proteins measured with a BCA assay kit (Pierce Ltd.) after the cells were solubilized with 0.1 N NaOH/0.1% SDS solution, and assuming that the radioactivity (dpm/mg cell protein) of the control group in the absence of the test compound was 100%, the content of intracellular cholesteryl esters (%) in the group treated with Compound A was calculated."}, "foam macrophages": {"system": "foam macrophages", "test": "Measurement of regulatory activity on intracellular cholesteryl ester cycle (aqueous methanol extraction)", "assay_type": "cell-based, mouse", "procedure": "According to the method of Hakamada et al. (“Jikken Igaku (Experimental Medicine), Extra Issue”, vol. 14, No. 12, Circulation Study Protocol, pp. 49-52 (1996)), peritoneal macrophages were prepared from C57BL6J mice stimulated with thioglycolate, and then cultured for 24 hours in RPMI 1640-25 mM HEPES (pH 7) containing β-very low-density lipoprotein (β-VLDL, 150 μg cholesterol/ml) prepared according to the method of Ishii et al. (Arterioscler. Thromb., 12, 1139-1145, 1992), a conjugate of 0.2 mM oleic acid/0.2% bovine serum albumin, and [1,2,6,7-^3H]-cholesterol (NEN, 37 KBq/ml) to obtain foam cells in which cholesteryl esters were accumulated. […] A part of the extract was fractionated by the TLC method (Merck Silica Gel Plate No. 5582, developing solvent: petroleum ether/diethyl ether/acetic acid=9:1:0.1), free cholesterol and cholesteryl ester fractions were cut off, a liquid scintillator was added, and the radioactivity thereof was measured.\nIn an RPMI 1640-HEPES medium (pH 7) containing the test compound, the foam macrophages prepared in Example 1 were cultured for 24 hours. The cells were extracted with 80% aqueous methanol for 10 minutes and then solubilized with 0.1 NaOH/0.1% SDS solution, a liquid scintillator was added to a portion thereof, and its radioactivity was measured. […]"}}}
{"compound": "COc1cccc(OC)c1NC(=O)Cc1c(-c2ccccc2C)c2cc(Cl)ccc2oc1=O", "note": "[Compound A, 2-[6-chloro-4-(2-methylphenyl)-2-oxo-2H-chromene-3-yl]-N-(2,6-dimethoxyphenyl) acetamide]", "values": [{"measurement": "Amount of cholesterol transferred (control group = 100%) Mean", "setting": "foam mouse macrophages; 0.01 mM", "result": 142, "unit": "%"}, {"measurement": "Amount of cholesterol transferred (control group = 100%) Mean", "setting": "foam mouse macrophages; 0.1 mM", "result": 191, "unit": "%"}, {"measurement": "action on transfer of cholesterol", "setting": "foam mouse macrophages", "result": "strong action"}, {"measurement": "Content of intracellular cholesteryl esters (control group = 100%) Mean", "setting": "foamed macrophages; 0.01 mM", "result": 63, "unit": "%"}, {"measurement": "Content of intracellular cholesteryl esters (control group = 100%) Mean", "setting": "foamed macrophages; 0.1 mM", "result": 48, "unit": "%"}, {"measurement": "action on reduction of the cholesteryl ester content", "setting": "foamed macrophages", "result": "strong action"}, {"measurement": "Content of intracellular cholesteryl esters (control group = 100%) TLC method Mean", "setting": "[1]; 0.01 mM", "result": 44, "unit": "%"}, {"measurement": "Content of intracellular cholesteryl esters (control group = 100%) Methanol method Mean", "setting": "[1]; 0.01 mM", "result": 41, "unit": "%"}, {"measurement": "Content of intracellular cholesteryl esters (control group = 100%) TLC method Mean", "setting": "[1]; 0.03 mM", "result": 16, "unit": "%"}, {"measurement": "Content of intracellular cholesteryl esters (control group = 100%) Methanol method Mean", "setting": "[1]; 0.03 mM", "result": 19, "unit": "%"}, {"measurement": "Content of intracellular cholesteryl esters (control group = 100%) TLC method Mean", "setting": "[1]; 0.1 mM", "result": 5, "unit": "%"}, {"measurement": "Content of intracellular cholesteryl esters (control group = 100%) Methanol method Mean", "setting": "[1]; 0.1 mM", "result": 9, "unit": "%"}, {"measurement": "inhibitory activity on synthesis of cholesteryl esters", "setting": "[1]; result in words, summary of Table 5", "result": "potent inhibitory activity"}, {"measurement": "Content of intracellular cholesteryl esters (control group = 100%) TLC method Mean", "setting": "[2]; 0.01 mM", "result": 71, "unit": "%"}, {"measurement": "Content of intracellular cholesteryl esters (control group = 100%) Methanol method Mean", "setting": "[2]; 0.01 mM", "result": 74, "unit": "%"}, {"measurement": "Content of intracellular cholesteryl esters (control group = 100%) TLC method Mean", "setting": "[2]; 0.1 mM", "result": 8, "unit": "%"}, {"measurement": "Content of intracellular cholesteryl esters (control group = 100%) Methanol method Mean", "setting": "[2]; 0.1 mM", "result": 14, "unit": "%"}, {"measurement": "promoting activity on degradation of cholesteryl esters", "setting": "[2]; result in words, summary of Table 6", "result": "strong promoting activity"}]}
{"compound": "CCCC(=O)Nc1ncnc2c1ncn2[C@@H]1O[C@@H]2COP(=O)(O)O[C@H]2[C@H]1OC(=O)CCC", "note": "[dbc-AMP, Dibutyryl cyclic AMP, reference compound]", "values": [{"measurement": "Cholesteryl ester content (%)", "setting": "foam macrophages; 100 μM, 24 hours, 80% aqueous methanol extraction, control = 100%", "result": "60 ± 12", "unit": "p < 0.01 %"}, {"measurement": "cholesteryl ester cycle-regulating action", "setting": "foam macrophages; result in words, summary of Table 2", "result": "potent cholesteryl ester-hydrolytic activity"}, {"measurement": "Amount of cholesterol efflux (%)", "setting": "foam mouse macrophages; 100 μM, 24 hours then 20% fetal bovine serum 24 hours, control = 100%", "result": "160 ± 15", "unit": "p < 0.01 %"}, {"measurement": "action on transfer of cholesterol", "setting": "foam mouse macrophages", "result": "exerts an action"}, {"measurement": "Cholesteryl ester content (%)", "setting": "foamed macrophages; 100 μM, 24 hours, enzyme method, control = 100%", "result": "78 ± 4", "unit": "p < 0.01 %"}, {"measurement": "action on reduction of the cholesteryl ester content", "setting": "foamed macrophages", "result": "exerts an action"}]}
